Data reported in ChEMBL document CHEMBL4808204, “Discovery of non-proteinogenic amino acids inhibiting biofilm formation by S. aureus and methicillin-resistant S. aureus” (Bioorg Med Chem Lett, 2021).
Active and inactive are the calls of the source. The rule behind the calls is not given here.

Legend:
Staphylococcus aureus [1] = test: Antibiofilm activity against Staphylococcus aureus assessed as biofilm formation at 100 uM measured by crystal violet staining based microplate reader assay; format: functional
Staphylococcus aureus [2] = test: Antibacterial activity in Staphylococcus aureus assessed as bacterial growth rate at 100 uM measured by UV absorbance based analysis; format: functional
Staphylococcus aureus [3] = test: Antibiofilm activity against Staphylococcus aureus assessed as inhibition of biofilm formation at 500 uM; format: functional
Pseudomonas aeruginosa [4] = test: Antibiofilm activity against Pseudomonas aeruginosa assessed as inhibition of biofilm formation at 100 uM; format: functional
Staphylococcus aureus [5] = test: Antibiofilm activity against Staphylococcus aureus assessed as inhibition of biofilm formation at 66 uM; format: functional
Staphylococcus aureus [6] = test: Antibiofilm activity against Staphylococcus aureus assessed as inhibition of biofilm formation at 100 uM; format: functional
Staphylococcus aureus [7] = test: Antibiofilm activity against Staphylococcus aureus assessed as inhibition of biofilm formation at 60 uM; format: functional
Escherichia coli = test: Antibiofilm activity against Escherichia coli assessed as inhibition of biofilm formation at 1 to 100 uM by UV absorbance based analysis; format: functional, organism-based; conditions: dose 1-100 µM
[8] = test system: Staphylococcus epidermidis; test: Antibiofilm activity against Staphylococcus epidermidis assessed as inhibition of biofilm formation at 1 to 100 uM by UV absorbance based analysis; format: functional, organism-based; conditions: dose 1-100 µM
HeLa = test: Cytotoxicity against human HeLa cells at 1 to 100 uM by WST8 assay; format: cell-based; conditions: dose 1-100 µM
Staphylococcus aureus [9] = test: Antibiofilm activity against Staphylococcus aureus assessed as inhibition of attachment of biofilm on the bacterial surface at 1 to 100 uM; format: functional, organism-based; conditions: dose 1-100 µM
Staphylococcus aureus [10] = test: Antibiofilm activity against Staphylococcus aureus assessed as inhibition of biofilm formation at 10 uM measured by crystal violet staining based microplate reader assay; format: functional
Pseudomonas aeruginosa [11] = test: Antibiofilm activity against Pseudomonas aeruginosa assessed as inhibition of biofilm formation at 100 uM measured by crystal violet staining based microplate reader assay; format: functional, organism-based
Listeria monocytogenes = test: Antibiofilm activity against Listeria monocytogenes assessed as inhibition of biofilm formation by UV absorbance based analysis; format: functional, organism-based; conditions: dose 1-100 µM
Acinetobacter baumannii = test: Antibiofilm activity against Acinetobacter baumannii assessed as inhibition of biofilm formation at 1 to 100 uM by UV absorbance based analysis; format: functional, organism-based; conditions: dose 1-100 µM
Streptococcus mutans = test: Antibiofilm activity against Streptococcus mutans assessed as inhibition of biofilm formation at 1 to 100 uM by UV absorbance based analysis; format: functional, organism-based; conditions: dose 1-100 µM
Staphylococcus aureus [12] = test: Antibiofilm activity against methicillin-resistant Staphylococcus aureus assessed as inhibition of biofilm formation by UV absorbance based analysis; format: functional, organism-based; conditions: dose 1-100 µM
Staphylococcus aureus [13] = test: Antibiofilm activity against Staphylococcus aureus assessed as inhibition of biofilm formation by UV absorbance based analysis; format: functional, organism-based; conditions: dose 1-100 µM
Pseudomonas aeruginosa [14] = test: Antibiofilm activity against Pseudomonas aeruginosa assessed as inhibition of biofilm formation at 1 to 100 uM by UV absorbance based analysis; format: functional, organism-based; conditions: dose 1-100 µM

Row | SMILES | Biofilm formation (Staphylococcus aureus [1]) [%] | Activity (Staphylococcus aureus [2]) [%] | other results
1 | NC(C(=O)O)C(O)c1ccccc1 (configuration not stated) | 101 | 97 | 
2 | NC(Cc1cc(I)c(O)c(I)c1)C(=O)O (configuration not stated) | 5 | 26 | 
3 | N[C@H](CO)C(=O)O [(D)-SERINE] | 83 | 85 | 
4 | O=C(O)[C@H]1CCCN1 [D-PROLINE] |  |  | inhibition at 500 µM (Staphylococcus aureus [3]): > 70%
5 | N[C@H](Cc1ccccc1)C(=O)O [D-PHENYLALANINE] |  |  | inhibition at 500 µM (Staphylococcus aureus [3]): > 70%
6 | CNC[C@H](O)c1ccc(O)c(O)c1 [EPINEPHRINE] |  | 79 | Activity (Staphylococcus aureus [1]): 77%
7 | Oc1ccccc1O [CATECHOL] | 84 | 106 | 
8 | NC(Cc1cc(I)c(Oc2ccc(O)c(I)c2)c(I)c1)C(=O)[O-].[Na+] (configuration not stated) | 2 | 18 | 
9 | NCCc1ccc(O)c(O)c1 [DOPAMINE] |  | 98 | Activity (Staphylococcus aureus [1]): 79%
10 | NC(Cc1cc(Br)c(O)c(Br)c1)C(=O)O (configuration not stated) | 6 | 72 | 
11 | N[C@@H](Cc1ccc(O)c(O)c1)C(=O)O [LEVODOPA] | 32 | 84 | 
12 | O=c1c(O)c(-c2ccc(O)c(O)c2)oc2cc(O)cc(O)c12 [QUERCETIN] |  |  | inhibition at 100 µM (Pseudomonas aeruginosa [4]): > 70%; inhibition at 66 µM (Staphylococcus aureus [5]): > 70%
13 | NC(Cc1ccc(Oc2ccc(O)cc2)cc1)C(=O)O (configuration not stated) | 15 | 106 | 
14 | N[C@H](Cc1ccc(O)cc1)C(=O)O | 85 | 119 | inhibition at 100 µM (Staphylococcus aureus [6]): > 70%
15 | CC(C)c1ccc2c(c1)CC[C@H]1[C@](C)(C(=O)O)CCC[C@]21C [DEHYDROABIETIC ACID] |  |  | inhibition at 60 µM (Staphylococcus aureus [7]): 90%
16 | N[C@@H](Cc1ccc(F)c(F)c1)C(=O)O | 31 | 145 | 
17 | N[C@@H](Cc1ccc(Cl)c(Cl)c1)C(=O)O | 46 | 117 | 
18 | N[C@@H](Cc1ccc(O)c([N+](=O)[O-])c1)C(=O)O | 16 | 80 | 
19 | OCc1ccc(O)c(O)c1 | 107 | 104 | 
20 | NC(C(=O)O)C(O)c1ccc(O)c(O)c1 (configuration not stated) | 12 | 104 | Activity (Escherichia coli): inactive; Activity [8]: inactive; Activity (HeLa): Non-Toxic; Activity (Staphylococcus aureus [9]): inactive; inhibition at 10 µM (Staphylococcus aureus [10]): 53%; Activity (Pseudomonas aeruginosa [11]): inactive; Activity (Listeria monocytogenes): Dose-Dependent Effect; Activity (Acinetobacter baumannii): inactive; Activity (Streptococcus mutans): inactive; Activity (Staphylococcus aureus [12]): Dose-Dependent Effect; Activity (Staphylococcus aureus [13]): Dose-Dependent Effect; Activity (Pseudomonas aeruginosa [14]): inactive
21 | CCCCCCCCCCCCCC(=O)NCC(=O)O | 4 | 38 | 
